Laboratory results from a melting point compilation (Tetko et al.; mined from patent text by program, amines drawn as free bases though some values may be those of a salt).

Compared with `CC(C)c1nc(C(N)(C(F)(F)F)C(F)(F)F)[nH]c1-c1ccc(S(C)(=O)=O)cc1`, `Cc1cccc(-c2[nH]c(C(C)C)nc2-c2cccc(-c3ccc(S(=O)(=O)N(C)C)cc3)c2)n1` is lower in melting point: 155 to 157 °C for the first, 93 to 96 °C for the second.

First: C(#Cc1ccc(C=CC2=CC(c3ccc(C#Cc4ccccc4)cc3)N(c3ccccc3)N2)cc1)c1ccccc1 (centres undefined)
Second: Oc1ccccc1-c1nc(-c2ccccc2O)n(Cc2ccccc2)n1
The melting point of the first is higher: 212 to 214 °C for the first, 166 to 168 °C for the second.

First: Cc1c2c(c(CCC=O)c(C(C)C)c1OCc1ccccc1)OC(C)(C)C2
Second: Cc1c(-c2ccccc2)oc2c(COCCCl)cccc2c1=O
The melting point of the first is lower: 88 to 89 °C for the first, 102 to 103 °C for the second.

Compared with `CC1(O)CN(c2ccc([N+](=O)[O-])cc2F)C1`, `O=[N+]([O-])c1ccc(Sc2ccccc2)c(CCl)c1` is lower in melting point: 109 to 110 °C for the first, 58 to 60 °C for the second.

First: O=C(Cc1noc2ccccc12)NS(=O)(=O)c1ccc(Cl)cc1
Second: O=C(NCc1ccc(Cl)cc1)c1coc2ccc(C#CCO)cc2c1=O
The melting point of the first is higher: 209 to 211 °C for the first, 182 to 183 °C for the second.

First: Cc1ccc(S(=O)(=O)n2c(CCCC(=O)O)cc3nc(Cl)ccc32)c2ccccc12
Second: Cc1c(C)c(C)c(S(=O)(=O)NCCc2ccc(C(=CCCCC(=O)O)c3cccnc3)cc2)c(C)c1C
The melting point of the first is higher: 199 to 204 °C for the first, 158 to 160 °C for the second.

Compared with `CC(=O)Nc1ccc2c(c1)C(=O)C(Br)CCO2` (centres undefined), `Cc1ccc(-c2ccc3c(c2)C=C(C(=O)Nc2ccc(CP4(=O)OCCCO4)cc2)CCO3)cc1` is higher in melting point: 157 to 160 °C for the first, 268 to 269 °C for the second.

Compared with `O=C(O)COc1cscc1Cl`, `O=C(O)COc1ccc2c(-c3cc([N+](=O)[O-])ccc3F)noc2c1Cl` is higher in melting point: 123 °C for the first, 238 to 240 °C for the second.

First: Cc1ncc(C(=O)O)c(C2=NC(C)(C(C)C)C(=O)N2)n1 (centres undefined)
Second: CC1CNc2cccc3c(=O)c(C(=O)O)cn1c23 (centres undefined)
The melting point of the first is lower: 56 to 57 °C for the first, greater than 250 °C for the second.

First: NCC(=O)NCC(=O)Nc1ccc([N+](=O)[O-])cc1C(=O)c1ccccc1
Second: O=C(O)CCCNC(=O)c1ccccc1NC(=O)c1ccccc1O
The melting point of the first is lower: 121 to 123 °C for the first, 173 to 174 °C for the second.

Compared with `CCc1cc(CCCOc2c(C)cc(-c3noc(C(F)(F)F)n3)cc2C)on1`, `Cc1cc(Oc2c(Cl)cc(C(F)(F)F)cc2Cl)n[nH]1` is lower in melting point: 157 to 158 °C for the first, 153 to 155 °C for the second.

First: O=S(CCCCCOc1ccc(C2=C(c3ccccc3)CCCc3cc(O)ccc32)cc1)CCCC(F)(F)C(F)(F)F (centres undefined)
Second: CN(CCOc1ccc(CC(Oc2ccc3ccccc3c2)C(=O)O)cc1)c1nc2ccccc2o1 (centres undefined)
The melting point of the first is lower: 138 to 140 °C for the first, 162 to 164 °C for the second.

Compared with `CN(C)c1ccc(N=Nc2ccccc2C(=O)NCCNC(=O)CI)cc1`, `CC(C)(C)CN(NC(=O)c1ccccc1)C(=O)c1ccccc1` is higher in melting point: 140 to 142 °C for the first, 237 to 239 °C for the second.

Compared with `O=C1c2ccccc2C(=O)N1CCCCSc1nccc(NC(=S)NCC(F)(F)F)n1`, `Cn1nc(-c2ccccc2Cl)nc1-c1ccc(Oc2ccc(C(F)(F)F)cn2)cc1Cl` is lower in melting point: 201 to 202 °C for the first, 104 to 108 °C for the second.

First: COCC(=O)Nc1cccc(-n2nc(OC)c(=O)n(Cc3ccc(Cl)cc3)c2=O)c1
Second: COC(=O)c1ccc(Cc2cn(C)c3ccc(CC(C)C(=O)O)cc23)c(OC)c1 (centres undefined)
The melting point of the first is lower: 143 °C for the first, 149 to 151 °C for the second.

First: COCCc1nc2c(N)nc3ccccc3c2n1CCCNS(C)(=O)=O
Second: CS(=O)(=O)NCCCC1COCc2nc3c(N)nc4ccccc4c3n21 (centres undefined)
The melting point of the first is lower: 193 to 194 °C for the first, 249 to 250 °C for the second.

First: CCCCCCNC(=O)OC1CCN(C(=O)Oc2ccc(Oc3ccccc3)cc2)CC1
Second: CCCCCCCC(=O)N(C)Cc1cccc(-c2ccc(C=CC(=O)O)cc2)c1
The melting point of the first is lower: 77 to 82 °C for the first, 124 to 125 °C for the second.

Compared with `O=C(Nc1ccccc1O)c1ccc(O)c(Cl)c1`, `CCOC(=O)C(O)c1ccccc1Nc1c(Cl)cccc1Cl` (centres undefined) is lower in melting point: 172 to 174 °C for the first, 155 to 156 °C for the second.

Compared with `O=C(Nc1ccc(C2=CCN(C(=O)Nc3ccc(OCC(O)CO)cc3Cl)CC2)cc1)Nc1ccccc1F` (centres undefined), `Cc1ccc2c(c1)Cc1c(C(=O)C(C#N)C(=O)Nc3ccccc3)nn(-c3ccccc3)c1-2` (centres undefined) is higher in melting point: 161 to 165 °C for the first, 249 to 251 °C for the second.

First: CCCCCCCCC(SCCCCCC)C(=O)Nc1c(OC)cc(Cl)c2ncccc12 (centres undefined)
Second: CCCCCCCN(Cc1ccc(CCC(C)C)cc1)C(=O)NC1(OC)C=C(C)C=CN1 (centres undefined)
The melting point of the first is higher: 110 to 111 °C for the first, 90 to 91 °C for the second.

First: CNC(=O)c1ncc2[nH]c3ccc(N)cc3c2c1C
Second: CCOC(=O)c1cnc2snc(C)c2c1N(Cc1cccnc1)S(=O)(=O)c1ccc(OC)cc1
The melting point of the first is higher: 281 to 285 °C for the first, 142 to 144 °C for the second.

Compared with `CN(C)C(=O)c1ccc(CCC(=O)c2cccc(OCc3ccc4ccc(Cl)cc4n3)c2)o1`, `O=C(O)c1cccc(-c2cccc(Oc3cc(Cl)cc(Cl)c3)n2)c1` is higher in melting point: 129 to 131 °C for the first, 234 to 235 °C for the second.

First: CC(C)(C)c1cc(C2=NC(=S)N=N2)cc(C(C)(C)C)c1O
Second: CC(C)(C)c1cc(-c2noc(=O)[nH]2)cc(C(C)(C)C)c1O
The melting point of the first is higher: greater than 250 °C for the first, 189 to 191 °C for the second.

First: FC(F)(F)Sc1cc[nH]c1-c1ccc(Cl)cc1
Second: OC1(c2ccc(Cl)cc2)c2cc(Cl)c(Cl)cc2CCC1Br (centres undefined)
The melting point of the first is lower: 59 to 64 °C for the first, 103 to 104 °C for the second.

First: CNC(=Nc1cccc(C(F)(F)F)c1)C(C)C
Second: CC(C)[C@@H]1N(C(=O)OCc2ccccc2)CO[C@]1(O)C(F)(F)F
The melting point of the first is lower: 52 to 54 °C for the first, 73 to 74 °C for the second.

First: N#CC(C#N)=C1C=C(c2ccsc2)S(=O)(=O)C(c2ccsc2)=C1
Second: O=C1OC(=O)c2c3ccccc3cc3cccc1c23
The melting point of the first is lower: 275 to 285 °C for the first, 289 to 290 °C for the second.

First: OC1(c2ccc3c(c2)OCO3)CCNCC1
Second: N#Cc1ccc(N2C(=N)C3(CCSCC3)NC2=O)cc1C(F)(F)F
The melting point of the first is lower: 135 to 138 °C for the first, 226 to 227 °C for the second.

First: Nc1nc(-c2ccc(CCCCN3CCN(c4nsc5ccccc45)CC3)cc2)cs1
Second: CCOc1nc2ccccc2nc1N(C)C(=O)N1CCN(c2cc(OC)cc(OC)c2)CC1
The melting point of the first is higher: 258 to 261 °C for the first, 159 to 161 °C for the second.

First: CCSCc1cc(O)nc(N(C)C)n1
Second: CC(C)(C)OC(=O)CCc1cc(S(C)(=O)=O)cc(-c2nc(=O)c3ccc(Cl)cc3s2)n1
The melting point of the first is lower: 119 to 121 °C for the first, 184 °C for the second.

Compared with `CC(=O)OC1CCC2C3CCC4=CC(=O)C=CC4(C)C3CCC12C` (centres undefined), `CC1(C)CC(NC(=O)C(=O)NCCO)CC(C)(C)N1OC1CCCCC1` is higher in melting point: 165 °C for the first, 190 to 192 °C for the second.

First: O=C1C(=O)c2ccc(-c3ccccc3)cc2C2=C1SCC1(CCN(C(=O)c3cccc(Cl)c3)CC1)O2
Second: CC(=O)c1cccc(C2=C(c3ccc(S(C)(=O)=O)cc3)OC(C)(C)C2=O)c1
The melting point of the first is higher: 240 to 241 °C for the first, 189 to 190 °C for the second.

Compared with `CN1CCC2(CC1)SC(C(C(=O)OC(C)(C)C)N1C(=O)c3ccccc3C1=O)NC2C(=O)OCc1ccccc1` (centres undefined), `COC(=O)CC1CCc2cc(C(=O)c3ccccc3)c(O)cc21` (centres undefined) is lower in melting point: 173 to 175 °C for the first, 148 to 150 °C for the second.

First: COc1ccc(C2(CNC(=O)Nc3c(C(C)C)cccc3C(C)C)CCCC2)cc1
Second: COc1ccc(OC2COc3ccc(O)cc3C2O)cc1 (centres undefined)
The melting point of the first is lower: 144 to 147 °C for the first, 187 to 189 °C for the second.

Compared with `C#CCOC(=O)CCC(C)(c1ccc(O)cc1)c1ccc(O)cc1`, `CC1(C)CC(C)(c2ccc(O)cc2)c2cc(O)ccc21` (centres undefined) is higher in melting point: 99.5 to 101 °C for the first, 202 °C for the second.

Going from `CC1(C)C(C(=O)O)C1C(Br)C(Br)(Br)Br` (centres undefined) to `CC[C@@H]1C(=O)N(Cc2ccc(OC)cc2OC)[C@H]1CC(=O)O` (relative stereo), the melting point falls from 150 °C to 131 °C.

Compared with `Cc1nc(N2CCc3ccccc3CC2)c(C#N)c(=O)n1CCN(C)C`, `C#CCn1c(-c2cccc(C=O)c2)nc(CC)c(CC)c1=O` is lower in melting point: 134 to 139 °C for the first, 82 to 86 °C for the second.

First: IC#CCOCc1cccnc1
Second: O=c1c(CCCCc2cccnc2)cc2cccnc2n1-c1cccc([N+](=O)[O-])c1
The melting point of the first is lower: 109 to 110 °C for the first, 184 to 185 °C for the second.

First: COc1cc2c(cc1OC)C(CSc1nnnn1C)NCC2 (centres undefined)
Second: COc1ccc(C2(C#Cc3cccc(-c4nnc(C)o4)c3)CCC(=O)CC2)cc1OC1CCCC1
The melting point of the first is lower: 96 to 99 °C for the first, 139 to 141 °C for the second.

First: Nc1ccc2c(c1Br)COC2=O
Second: Fc1ccc2c(c1)C(c1ccccc1F)=NCCN2C1=NCCO1
The melting point of the first is lower: 176 to 180 °C for the first, 180 to 181 °C for the second.

Going from `CCC(C)COC(=O)Oc1ccc(-c2ccc(OC(=O)OCC(C)CC)cc2)cc1` (centres undefined) to `COc1ccc(CN(C)CC(O)COc2ccc(NC(=O)c3cccc4c(=O)c5cccc(OC)c5[nH]c34)cc2)cc1OC` (centres undefined), the melting point rises from 85.5 °C to 175 °C.

First: CCc1nn(-c2c(Cl)cc(C(F)(F)F)cc2Cl)c(Cl)c1-c1nc(C#N)c(C#N)[nH]1
Second: CON(C(=O)c1cn(C)nc1C(F)F)C(C)c1cccc(-c2ccc(Cl)c(Cl)c2)c1 (centres undefined)
The melting point of the first is lower: 75 to 78 °C for the first, 162 to 164 °C for the second.

Compared with `CCC(=O)Oc1cccc2c1C(=O)c1c(OC(=O)CC)cc(-c3nnn[nH]3)cc1C2=O`, `COc1cc(O)ccc1CCCc1ccc(O)c(CC=C(C)C)c1` is lower in melting point: 176 to 178 °C for the first, 85 to 86 °C for the second.

Compared with `O=C(N[C@H]1CC[C@H](CCN2CCC(c3cccc4c3CCO4)CC2)CC1)c1ccccc1`, `O=C(c1ccccc1CBr)c1ccc(F)cc1CBr` is lower in melting point: 220 °C for the first, 98 to 99 °C for the second.

First: CC1CN(C(=O)CCl)c2ccccc21 (centres undefined)
Second: NC(=O)CCCCC1(c2ccccc2)CC(O)=CC(=O)O1 (centres undefined)
The melting point of the first is lower: 78 to 79 °C for the first, 173 to 174 °C for the second.

First: O=C(C(Cl)Cl)N1CCCCCC1
Second: NCC1(Cc2noc(=O)[nH]2)CCCCC1
The melting point of the first is lower: 56 °C for the first, 109 to 111 °C for the second.

First: O=C(NCc1ccccn1)c1ccc2cnccc2n1
Second: C=CCn1cc2c(c1)-c1ccc(Cl)cc1C(c1ccccc1F)=NC2
The melting point of the first is higher: 123 to 125 °C for the first, 100 to 102 °C for the second.

First: O=C(O)c1nc2cc(O)c(O)cc2nc1C(=O)O
Second: CCOC(=O)C(=O)c1cc(O)c(O)c([N+](=O)[O-])c1
The melting point of the first is higher: greater than 300 °C for the first, 77 to 79 °C for the second.

Compared with `CC(C)(C)NS(=O)(=O)c1ccc([N+](=O)[O-])cc1`, `CCCOCC(=O)c1ccc([N+](=O)[O-])cc1` is lower in melting point: 105 to 109 °C for the first, 49 to 50 °C for the second.

First: CC(=O)N(C#N)CCCCCCN(C#N)C(C)=O
Second: CCCN(CCCCc1c[nH]c2ccc(F)cc12)C1COc2c(F)ccc(C(N)=O)c2C1 (centres undefined)
The melting point of the first is lower: 59 to 61 °C for the first, 115 °C for the second.

For `Cc1cc(C(F)(F)F)nc(OCC2CO2)c1C(=O)C1=C(O)C2CCC(C2)C1=O` (centres undefined), the melting point was 54 to 56 °C.
